Seven molecules from patent US20080015202A1, “Thiazole Derivatives Having Vap-1 Inhibitory Activity” (Astellas Pharma Inc., priority 2004, published 2008) can be followed below.

Counter-ions that a name gives are not always drawn.

The target in one data set is T1, VAP-1 enzyme (SSAO) in human plasma (Homo sapiens, UniProt Q16853).
T1 construct: The enzyme suspension prepared from blood plasma was pre-incubated with one of the present compounds; from tissue; host or cells: human blood plasma
T1 sequence (Q16853 27-763 limits assumed): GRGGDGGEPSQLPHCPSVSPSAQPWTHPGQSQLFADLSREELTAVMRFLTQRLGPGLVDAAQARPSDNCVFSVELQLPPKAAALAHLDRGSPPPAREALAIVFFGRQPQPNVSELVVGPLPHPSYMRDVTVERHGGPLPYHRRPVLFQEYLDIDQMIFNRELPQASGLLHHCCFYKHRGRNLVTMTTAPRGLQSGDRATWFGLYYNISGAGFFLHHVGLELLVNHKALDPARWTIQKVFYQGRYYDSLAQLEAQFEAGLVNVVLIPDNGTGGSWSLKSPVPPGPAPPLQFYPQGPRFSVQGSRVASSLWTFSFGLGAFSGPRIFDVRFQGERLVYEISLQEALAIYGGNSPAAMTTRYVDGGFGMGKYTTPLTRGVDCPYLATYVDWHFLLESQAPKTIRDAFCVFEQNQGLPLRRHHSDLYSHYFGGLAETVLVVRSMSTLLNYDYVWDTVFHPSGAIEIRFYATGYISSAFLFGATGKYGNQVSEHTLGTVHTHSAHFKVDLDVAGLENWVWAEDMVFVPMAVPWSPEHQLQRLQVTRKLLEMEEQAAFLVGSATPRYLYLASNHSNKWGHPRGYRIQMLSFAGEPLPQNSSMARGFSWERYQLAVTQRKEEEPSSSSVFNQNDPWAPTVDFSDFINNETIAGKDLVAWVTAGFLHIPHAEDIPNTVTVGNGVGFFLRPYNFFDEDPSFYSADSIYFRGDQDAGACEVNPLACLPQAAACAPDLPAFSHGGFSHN
Description: Inhibitory effect on VAP-1 enzyme (SSAO) activity in human plasma, radiochemical-enzyme assay with 14C-benzylamine. Format: biochemical. Particulars: human plasma enzyme suspension; 30 min pre-incubation at room temperature; 14C-benzylamine 2×10^−5 mol/l, 37° C., 1 hour. The procedure: Inhibitory Effect of the Present Compounds on VAP-1 Enzyme (SSAO) Activity in Human Plasma.
VAP-1 enzyme (SSAO) activity in human plasma was determined by a radiochemical-enzyme assay using ^14C-benzylamine as an artificial substrate. The enzyme suspension prepared from blood plasma was pre-incubated with one of the present compounds or control compound (Reference Example) in 96-well microplate at room temperature for 30 minutes. The enzyme suspension was then incubated with ^14C-benzylamine (2×10^−5 mol/l final concentration) in a final volume of 50 μl at 37° C. for 1 hour. The enzyme reaction was terminated by adding 2 mol/l (50 μl) citric acid. The oxidized products were directly extracted into a 200 μl toluene scintillator, and its radioactivity was measured by a scintillation spectrometer. Inhibition activity was expressed as IC50 (μmol/l) value.
One may read the IC50 as the point on the concentration scale where inhibition reaches its midpoint. Turning to `CC(=O)Nc1nc(CCc2ccc(CC(=O)NC(=N)N)s2)cs1` [Production Example 4, 2-{5-[2-(2-acetylaminothiazol-4-yl)ethyl]-2-thienyl}-N-[amino(imino)methyl]acetamide], 2.4 nM corresponded to half-maximal inhibition (IC50). In other words, the single-digit nanomolar range.

`CC(=O)Nc1nc(CCc2ccc(Cc3c[nH]c(N)n3)cc2)cs1` [Production Example 17, N-[4-(2-{4-[(2-amino-1H-imidazol-4-yl)methyl]phenyl}ethyl)thiazol-2-yl]acetamide] had an IC50 of 5.3 nM.

Molecule `CC(=O)Nc1nc(CCc2ccc(CNC(=N)N)s2)cs1` [Production Example 3, N-(4-{2-[5-({[amino(imino)methyl]amino}methyl)-2-thienyl]ethyl}thiazol-2-yl)acetamide hydrochloride] came in with an IC50 of 12 nM.

Test system in another data set: not given
Assay: not given
Details: not given
Usually melting point stands for the temperature of the solid-liquid transition. On to `CC(=O)Nc1nc(CCc2ccc(CCNC(=N)N)s2)cs1` [Production Example 1, N-(4-{2-[5-(2-{[amino(imino)methyl]amino}ethyl)-2-thienyl]ethyl}thiazol-2-yl)acetamide], for which the melting point was 121.5 to 123 °C.

Consider `CC(=O)Nc1nc(CCc2ccc(CC(=O)NC(=N)N)s2)cs1` [Production Example 4, 2-{5-[2-(2-acetylaminothiazol-4-yl)ethyl]-2-thienyl}-N-[amino(imino)methyl]acetamide], for which the melting point lay in the range of 188.5 to 190 °C.

On to `CC(=O)Nc1nc(CCc2ccc(CN3CCNCC3)cc2)cs1` [Production Example 12, N-(4-{2-[4-(1-piperazinylmethyl)phenyl]ethyl}thiazol-2-yl)acetamide], for which the melting point lay within 164 to 165.5 °C.

In turn, `CC(=O)Nc1nc(CCc2ccc(CC(=O)O)s2)cs1` [Production Example 5, 2-{5-[2-(2-acetylaminothiazol-4-yl)ethyl]-2-thienyl}acetic acid] came in with a melting point of 172 to 173.5 °C.

In the case of `CC(=O)Nc1nc(CCc2ccc(CN3CCN(C(=O)OC(C)(C)C)CC3)cc2)cs1` [Production Example 11, tert-butyl 4-{4-[2-(2-acetylaminothiazol-4-yl)ethyl]benzyl}-1-piperazinecarboxylate], the melting point lay in the range of 140 to 141 °C.
